Assay results published in ChEMBL document CHEMBL3593231, “3,5-Diarylpyrazole Derivatives Obtained by Ammonolysis of the Total Flavonoids from Chrysanthemum indicum Extract Show Potential for the Treatment of Alzheimer's Disease” (J Nat Prod, 2015).
Active and inactive are the calls of the source. No cut-off for these calls is given here.

Key:
SH-SY5Y [1] = test: Cytotoxicity against human SH-SY5Y cells assessed as cell viability at 10 uM after 48 hrs by MTT assay; assay type: cell-based
[2] = biological target: T1, Amyloid-beta precursor protein (Homo sapiens, UniProt P05067); test: Inhibition of amyloid beta (1 to 42) (unknown origin) aggregation after 48 hrs by thioflavin T fluorescence assay
SH-SY5Y [3] = test: Neuroprotective activity against amyloid beta (1 to 42)-induced cytotoxicity in human SH-SY5Y cells at 5 to 80 uM after 48 hrs by MTT assay; assay type: functional, cell-based
[4] = biological target: T1, Amyloid-beta precursor protein; test: Potency index, ratio of curcumin IC50 to compound IC50 for inhibition of amyloid beta (1 to 42) (unknown origin) aggregation

T1 sequence (P05067 whole entry): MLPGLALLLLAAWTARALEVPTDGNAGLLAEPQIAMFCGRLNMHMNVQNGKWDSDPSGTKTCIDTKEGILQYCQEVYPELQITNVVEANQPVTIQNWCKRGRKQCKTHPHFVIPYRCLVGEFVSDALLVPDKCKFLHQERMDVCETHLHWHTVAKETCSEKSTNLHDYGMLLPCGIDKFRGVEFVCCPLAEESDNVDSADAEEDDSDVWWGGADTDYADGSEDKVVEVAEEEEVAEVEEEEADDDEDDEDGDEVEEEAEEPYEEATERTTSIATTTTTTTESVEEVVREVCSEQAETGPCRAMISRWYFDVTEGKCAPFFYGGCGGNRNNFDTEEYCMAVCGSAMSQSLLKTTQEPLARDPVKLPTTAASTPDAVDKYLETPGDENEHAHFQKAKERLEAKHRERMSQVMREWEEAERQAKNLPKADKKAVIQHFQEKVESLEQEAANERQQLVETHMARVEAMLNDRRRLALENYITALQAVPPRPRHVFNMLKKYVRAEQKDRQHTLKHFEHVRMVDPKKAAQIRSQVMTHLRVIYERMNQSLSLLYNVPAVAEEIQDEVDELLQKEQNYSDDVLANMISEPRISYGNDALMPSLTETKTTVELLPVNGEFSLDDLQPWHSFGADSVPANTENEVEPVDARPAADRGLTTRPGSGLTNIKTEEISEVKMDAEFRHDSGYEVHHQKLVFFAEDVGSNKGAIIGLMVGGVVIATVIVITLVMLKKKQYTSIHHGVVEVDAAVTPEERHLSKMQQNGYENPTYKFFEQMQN

In the case of COc1cc(-c2cc(-c3c(O)cccc3O)[nH]n2)cc(OC)c1O, the Activity (SH-SY5Y [1]) is reported as “Non-toxic” and the IC50 [2] is reported as 2.9 µM.
For Oc1ccc(-c2cc(-c3c(O)cccc3O)[nH]n2)cc1O, the Activity (SH-SY5Y [3]) was “Active”, the Activity (SH-SY5Y [1]) was “Non-toxic” and the Ratio IC50 [4] was 3. For the same molecule, the IC50 [2] was 1.3 µM.
With COc1cc(-c2cc(-c3c(O)cccc3O)[nH]n2)ccc1O the Activity (SH-SY5Y [1]) was “Non-toxic” and the IC50 [2] was 4.3 µM.
Oc1ccc(-c2cc(-c3c(O)cccc3O)[nH]n2)cc1 was tested, and the IC50 [2] was 15.8 µM.
